Data taken from patent US7687473B2, “5-amino-4-imidazolecarboxamide riboside and its nucleobase as potentiators of antifolate transport and metabolism” (Health Research, Inc., priority 2005, dated 2010).

How the values were obtained:
[1] = tested on: R2 (MTX-resistant CCRF-CEM subline); experiment: Inhibition of growth of RFC-defective subline R2; assay type: cell-based; conditions: Homo sapiens, continuous exposure, no Z, read-out: EC50 against R2
Description: Inhibition of growth of human cell lines in vitro. Inhibition of growth of CCRF-CEM in continuous and intermittent drug exposures was measured. EC50 values were determined from plots of percent control growth versus the logarithm of drug concentration.
TMTX was present in both conditions to establish DHFR inhibition, since that appears to be required.

[2] = molecular target: T1, es (or ENT1) facilitated diffusion nucleoside transport system (Homo sapiens, UniProt Q99808); experiment: Inhibition of Z potentiation of [3H]MTX uptake by es nucleoside transporter inhibitors; assay type: cell-based; conditions: [Z] 500 μM, HBSS
T1 construct: this is the only nucleoside transporter present in CCRF-CEM cells; endogenous in cells; host or cells: CCRF-CEM (parental), in HBSS
T1 sequence (Q99808 1-456): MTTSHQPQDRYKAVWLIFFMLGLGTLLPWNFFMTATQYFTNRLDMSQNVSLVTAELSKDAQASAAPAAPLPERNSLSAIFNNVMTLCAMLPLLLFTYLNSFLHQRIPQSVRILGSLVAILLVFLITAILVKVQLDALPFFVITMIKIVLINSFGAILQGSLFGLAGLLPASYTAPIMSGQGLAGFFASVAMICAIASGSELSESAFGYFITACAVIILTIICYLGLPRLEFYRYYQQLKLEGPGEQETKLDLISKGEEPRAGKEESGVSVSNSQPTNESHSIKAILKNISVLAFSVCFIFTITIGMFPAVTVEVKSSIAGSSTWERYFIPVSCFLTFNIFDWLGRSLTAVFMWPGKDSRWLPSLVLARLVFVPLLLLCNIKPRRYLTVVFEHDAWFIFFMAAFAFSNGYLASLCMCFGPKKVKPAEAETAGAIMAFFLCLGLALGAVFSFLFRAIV

Structure (SMILES) | EC50 [1] [nM] | Rel Corrected 30 min accumulation (relative to +Z, no inhibitor) [2] | Relative Corrected vi (relative to +Z, no inhibitor) [2] | Accumulation at 30 min ([2]; no inhibitor) [pmol] | Corrected 30 min accumulation (accum +Z minus accum −Z with same inhibitor) ([2]; no inhibitor) | Corrected vi (rate +Z minus rate −Z with same inhibitor) ([2]; no inhibitor) | vi ([2]; no inhibitor) [pmol/min]
CN(Cc1cnc2nc(N)nc(N)c2n1)c1ccc(C(=O)N[C@@H](CCC(=O)O)C(=O)O)cc1 [MTX, 4-amino-10-methylpteroylglutamic acid] | 2200 |  |  |  |  |  | 
NC(=O)c1ncn([C@@H]2O[C@H](CO)[C@@H](O)[C@H]2O)c1N [Z, 5-amino-4-imidazolecarboxamide riboside] |  | 1 | 1 | 108.3 | 91.3 | 4.25 | 5.65
